Activity calls are given as the source filed them. The calls are words filed in the database; no cut-off is given here.
Assays:
[1] = Cytotoxicity against dog MDCK cells incubated for 48 hrs by MTT assay; type: cell-based, Canis lupus familiaris
Influenza A virus [2] = experiment: Antiviral activity against Influenza A virus (A/Puerto Rico/8/1934(H1N1)) infected in MDCK cells incubated for 48 hrs by MTT assay; type: functional, organism-based
Influenza A virus [3] = experiment: Antiviral activity against Influenza A virus (A/Puerto Rico/8/34(H1N1)) infected in MDCK cells assessed as reduction in HA mRNA level at 1 ng/ml pre-treated with virus for 30 mins followed by cell infection for 1 hr and measured after 24 hrs post infection by SYBR green dye-based qRT-PCR analysis; type: functional, organism-based; conditions: A/Puerto Rico/8/1934(H1N1), time 1470.0 min
SARS-CoV-2 [4] = experiment: (§1) Antiviral activity against SARS-CoV-2 nCoV-2019 BetaCoV/Wuhan/WIV04/2019 infected in Vero E6 cells assessed as S gene expression preincubated with cells for 1 hr followed by viral addition for 1 hr and measured at 24 hrs post infection by qRT-PCR method; type: functional, organism-based; conditions: Severe acute respiratory syndrome coronavirus 2, nCoV-2019 BetaCoV/Wuhan/WIV04/2019, Vero C1008
MDCK = experiment: Inhibition of V-ATPase in dog MDCK cells assessed as decrease in fluorescence intensity at 5 uM incubated for 20 mins by acridine orange staining-based fluorescence quenching method (reference value: 100%); type: cell-based; conditions: Canis lupus familiaris
Influenza A virus [5] = experiment: Antiviral activity against Influenza A virus (A/Puerto Rico/8/1934(H1N1)) infected in MDCK cells pre-treated with virus for 30 mins followed by cell infection for 1 hr by MTT assay; type: functional, organism-based
SARS-CoV-2 [6] = experiment: as §1, with “reduction in NP” for “S gene”, “expression at 0.005 to 0.5 ug/ml” for “expression”, “indirect immunofluorescence assay” for “qRT-PCR method”; type: functional, organism-based; conditions: Severe acute respiratory syndrome coronavirus 2, dose 0.005-0.5 µg/ml, time 26.0 hrs
SARS-CoV-2 [7] = experiment: Antiviral activity against SARS-CoV-2 nCoV-2019 BetaCoV/Wuhan/WIV04/2019 infected in Vero E6 cells assessed as S gene expression preincubated with virus for 30 mins followed by cell infection for 1 hr and measured at 24 hrs post infection by qRT-PCR method; type: functional, organism-based; conditions: Severe acute respiratory syndrome coronavirus 2, nCoV-2019 BetaCoV/Wuhan/WIV04/2019, Vero C1008
Influenza A virus [8] = experiment: Antiviral activity against Influenza A virus (A/Puerto Rico/8/34(H1N1)) infected in MDCK cells assessed as reduction in M1 mRNA level at 1 ng/ml pre-treated with virus for 30 mins followed by cell infection for 1 hr and measured after 24 hrs post infection by SYBR green dye-based qRT-PCR analysis; type: functional, organism-based; conditions: A/Puerto Rico/8/1934(H1N1), time 1470.0 min
Influenza A virus [9] = experiment: Antiviral activity against Influenza A virus (A/Puerto Rico/8/34(H1N1)) infected in MDCK cells assessed as reduction in NP expression level at 0.5 to 1 ng/ml pre-treated with virus for 30 mins followed by cell infection for 1 hr and measured after 24 hrs post infection by indirect immunofluorescence assay; type: functional, organism-based; conditions: A/Puerto Rico/8/1934(H1N1), dose 0.5-1 ng/ml, time 1470.0 min

Compound | CC50 at 48 h [1] [nM] | IC50 (Influenza A virus [2]) [nM] | Activity (Influenza A virus [3]) | IC50 (SARS-CoV-2 [4]) [nM] | Flu intensity (MDCK) [%] | IC50 (Influenza A virus [5]) [nM] | Activity (SARS-CoV-2 [6]) | IC50 (SARS-CoV-2 [7]) [nM] | Activity (Influenza A virus [8]) | Activity (Influenza A virus [9])
CO/C1=C/C(C)=C/[C@@H](C)[C@H](O)[C@@H](C)C/C(C)=C/C=C/[C@H](OC)[C@@H]([C@@H](C)[C@@H](O)[C@H](C)[C@]2(OC)C[C@H](OC(=O)/C=C/C(=O)NC3=C(O)CCC3=O)[C@@H](C)[C@H](C(C)C)O2)OC1=O | 240 | 50 | Active | 5.11 | 73.6 | 0.1 | Active | 8.32 | Active | Active
CO/C1=C\C(C)=C\[C@@H](C)[C@@H](O)[C@@H](C)C/C(C)=C/C=C/[C@H](OC)[C@@H]([C@@H](C)[C@@H](O)[C@H](C)[C@@]2(O)C[C@@H](O)[C@H](C)[C@@H](C(C)C)O2)OC1=O [BAFILOMYCIN A1] | 1410 | 580 |  |  | 85.3 | 0.06 |  |  |  | 
CO/C1=C/C(C)=C/[C@@H](C)[C@H](O)[C@@H](C)C/C(C)=C/C=C/[C@H](OC)[C@@H]([C@@H](C)[C@@H](O)[C@H](C)C(=O)/C=C/C(C)=C/C(C)C)OC1=O | 3100 | 460 |  |  | 93.5 | 2.13 |  |  |  | 
CO/C1=C/C(C)=C/[C@@H](C)[C@H](O)[C@@H](C)C/C(C)=C/C=C/[C@H](OC)[C@@H]([C@@H](C)[C@@H](O)[C@H](C)C(=O)/C=C/[C@H](C)[C@H](O)C(C)C)OC1=O | 910 | 30 |  |  | 82.7 | 0.1 |  |  |  | 
CO/C1=C/C(C)=C/[C@@H](C)[C@H](O)[C@@H](C)C/C(C)=C/C=C/[C@H](OC)[C@@H]([C@@H](C)[C@@H](O)[C@H](C)[C@]2(O)C[C@H](OC)[C@@H](C)[C@H](C(C)C)O2)OC1=O | 190 | 140 |  |  |  | 0.65 |  |  |  | 
CO/C1=C/C(C)=C/[C@@H](C)[C@H](O)[C@@H](C)C/C(C)=C/C=C/[C@H](OC)[C@@H]([C@@H](C)[C@@H](O)[C@H](C)[C@]2(OC)C[C@H](O)[C@@H](C)[C@H](C(C)C)O2)OC1=O | 1710 | 170 |  |  | 88.7 | 0.11 |  |  |  | 
CCOC(=O)c1c(CSc2ccccc2)n(C)c2cc(Br)c(O)c(CN(C)C)c12 [UMIFENOVIR] | 46400 | 460 |  |  |  | 400 |  |  |  | 
CO/C1=C/C(C)=C/[C@@H](C)[C@H](O)[C@@H](C)C/C(C)=C/C=C/[C@H](OC)[C@@H]([C@@H](C)[C@@H](O)[C@H](C)[C@]2(OC)C[C@H](OC)[C@@H](C)[C@H](C(C)C)O2)OC1=O | 1290 | 260 |  |  |  | 0.18 |  |  |  | 
CO/C1=C/C(C)=C/[C@@H](C)[C@H](O)[C@@H](C)C/C(C)=C/C=C/[C@H](OC)[C@@H]([C@@H](C)[C@@H](O)[C@H](C)[C@]2(O)C[C@H](OC(=O)/C=C/C(=O)NC3=C(O)CCC3=O)[C@@H](C)[C@H](C(C)C)O2)OC1=O | 1310 | 100 | Active |  | 78.4 | 0.17 |  |  | Active | Active

Reference: ChEMBL document CHEMBL4813961, “Antiviral Bafilomycins from a Feces-Inhabiting Streptomyces sp” (J Nat Prod, 2021)
